Results from patent EP2043663B1, “TOPICAL TREATMENT OF WARTS” (ITH Immune Therapy Holdings AB, priority 2006, dated 2008).

Legend:
common wart = assay: Treatment of warts II: gelled aqueous dithionite solution applied to a wart; format: in vivo, person; details: several drops of freshly prepared aqueous solution containing 2.0 % by weight of hydroxypropylmethyl cellulose; back of hand; rinsed after half an hour; wart wetted three hours from application; wooden spatula
From the text: Treatment of warts II. Several drops of freshly prepared aqueous solution of sodium dithionite containing 2.0 % by weight of hydroxypropylmethyl cellulose are applied to a common wart on the back of a persons hand. After half an hour the hand is rinsed with water. Three hours from application the wart is wetted.

epithelial cells = assay: Epithelial cytotoxicity cell assay; format: cell-based; details: AIM V medium

SMILES: O=S([O-])S(=O)[O-].[Na+].[Na+] [sodium dithionite]
- removability of the wart (common wart): easily removed
- effect on the cells (cytotoxicity) (epithelial cells; highest concentration): substantial cell death
- effect on the cells (cytotoxicity) (epithelial cells; lowest concentration, 0.001 g/mL): did not affect the cells
